How the values were obtained:
[1] = 75% by weight solution mixed with 25% by weight of a 50% phosphonate solution, room temperature, one week; FIG. 3
Procedure: The source of iron was iron(II) sulfate heptahydrate, the base utilized was Mg(OH)2, and the citric acid:malic acid ratio was 50:50. The ratio of metal:base:total acid was 4:4:3.
A comparative solution was prepared by mixing 75% of an iron sulfate solution with 25% of the same phosphonate, also under ambient conditions. The solutions were permitted to sit for one week to look for any unwanted precipitation (i.e., iron complexed with the phosphonate).

[2] = system: soybean plants; assay: Fe foliar application trial, iron uptake by ICP; assay type: in vivo; conditions: foliar at V3 stage, Fe rate 0.616 mg/pot (Table 20), harvested after 1 week
Procedure: (§1) Iron concentrations for the various plants were also determined and compared at the time of harvest, which was at least 3 days after the last treatment application. Again, each treatment had five replicates. All samples were washed in acetic acid and rinsed before being prepared for analysis by Inductively Coupled Plasma (“ICP”) Spectroscopy. Dried samples were combusted at 450° C. and extracted with concentrated hydrochloric acid, followed by analysis using ICP.
(§2) Iron uptake was determined using ICP as described in Example 9.
(§3) Example 11 was exactly repeated except that instead of treating the soil with an iron solution by pipetting the solution at the time of transplantation, the plants were treated foliarly at V3 stage of growth and harvested 1 week after treatment. The SPAD, biomass, and iron uptake results can be found in Tables 24-26, respectively, while the Fe(III) reductase gene expression results can be found in FIG. 14.

[3] = system: soybean plants; assay: Fe foliar application trial, SPAD measurements; assay type: in vivo; conditions: foliar at V3 stage, Fe rate 0.616 mg/pot (Table 20), harvested after 1 week
Procedure: (§4) The plants were analyzed for leaf chlorophyll concentrations using a Soil Plant Analysis Development (“SPAD”) chlorophyll meter (SPAD 502 Plus Chlorophyll Meter, from Spectrum Technologies, Inc.), which enables an in situ, nondestructive technique. That is, not sample processing was required, and the tests were carried out on live plants. Readings were taken immediately before the first foliar treatment and again at 72 hours after the second foliar treatment, and the % SPAD increase of each sample was determined.
Thirty-six days after transplantation, the plants were harvested. SPAD measurements were taken as described Example 9. Fully grown youngest trifoliate and second youngest trifoliate were selected for these SPAD measurements. A total of nine readings were taken per trifoliate (3 per leaf).
as §3

[4] = system: soybean plants; assay: Fe furrow application trial, iron uptake by ICP; assay type: in vivo; conditions: in furrow at transplanting, Fe rate 0.616 mg/pot, harvested at V3-stage
Procedure: as §1
(§5) Alkaline soil having a pH of 7.9 was made by mixing air-dried Michigan topsoil (sieved) and fine sand (50:50, v/v). Next, 0.5% w/w calcium hydroxide was added to the soil-sand mixture and mixed well. Water was then added (15% v/v), and the pots were kept in that condition for a week to allow time for alkalinity fully develop. The pH was checked, and the soil was then added to 1-liter pots. There were thirty pots total, providing five replicates for each of the six treatments described below.
(§6) Soybean seeds (FS HISOY® Soybeans) were planted in trays filled with sieved topsoil. A base fertilizer comprising water solution made with urea (N), and monoammonium phosphate (P), and potassium sulfate (K) was applied to each tray before planting. The application rate was of 50-50-50 ppm NPK. Seedlings were irrigated with DI water. The trays were kept in a plant growth chamber so that each seedling received the same environmental exposure during growth.
(§7) Sixteen days after the seeds were planted as described in Part 2 of this Example, the seedlings were transplanted to the pots prepared in Part 1 of this Example. A fertilizer solution was prepared by mixing 16.67 g of Nova PeKacid® 0-60-20 (a phosphorus and potassium fertilizer, available from ICL Specialty Fertilizers), 13.33 g of SOP fertilizer, and 11.2 L of DI water. At the time of transplant, 56.5 mL of this fertilizer solution were added to each pot, and this same fertilizer solution application was repeated weekly until harvest.
(§8) A micronutrient fertilizer solution was prepared by mixing the compounds of Table 19 in 1 L of DI water. At the time of transplanting, 10 mL of this micronutrient fertilizer solution was added to each pot. This application was not repeated during the growth cycle.
(§9) Using a pipette, an iron test solution (comparative or Option 11 solution from Example 9—see Table 20) was applied about 1 cm below the soil surface, near each plant except for the negative control. This was the only iron test solution application.
(§10) All plants received about 100 mL of DI water every other day.
as §2

[5] = system: soybean plants; assay: Fe foliar application trial, biomass measurements; assay type: in vivo; conditions: foliar at V3 stage, Fe rate 0.616 mg/pot (Table 20), harvested after 1 week
Procedure: (§11) One week after application, root and shoot masses were determined by drying the above- and below-ground biomass for 12 hours at […], then weighing each plant to the third decimal in grams.
(§12) Shoot and root biomasses were also determined, following the procedure described in Example 7.
as §3

[6] = system: soybean plants; assay: Fe furrow application trial, biomass measurements; assay type: in vivo; conditions: in furrow at transplanting, Fe rate 0.616 mg/pot, harvested at V3-stage
Procedure: as §11, §5, §6, §7, §8, §9, §10, §12

[7] = system: soybean plants; assay: Fe furrow application trial, SPAD measurements; assay type: in vivo; conditions: in furrow at transplanting, Fe rate 0.616 mg/pot, harvested at V3-stage
Procedure: as §4, §5, §6, §7, §8, §9, §10
Thirty-six days after transplantation, the plants were harvested. SPAD measurements were taken as described Example 9. […] A total of nine readings were taken per trifoliate (3 per leaf).

SMILES	extent of coordination complexing of iron (unwanted precipitation with phosphonate) [1]	Average Fe uptake, root [2] [μg/plant]	Average Fe uptake, shoot [2] [μg/plant]	Average SPAD value, second youngest trifoliate (old) [3]	Average SPAD value, youngest trifoliate (young) [3]	Average Fe uptake, root [4] [μg/plant]	Average Fe uptake, shoot [4] [μg/plant]	Root average weight/plant (dry biomass) [5] [g]	Shoot average weight/plant (dry biomass) [5] [g]	Root average dry biomass [6] [g]	Shoot average dry biomass [6] [g]	Average SPAD value, second youngest trifoliate (old) [7]	Average SPAD value, youngest trifoliate (young) [7]
O=S(=O)([O-])[O-].[Fe+2] [FeSO4, iron sulfate]	which was not the case	273.02	217.88	29.84	33.64	172.17	116.20	0.601	2.199	0.540	1.992	30.74	32.98
O=C([O-])CN(CCN(CC(=O)[O-])CC(=O)[O-])CC(=O)[O-].[Fe+3] [FeEDTA, iron chelated with EDTA]		246.69	348.28	32.74	32.06	183.64	188.92	0.661	2.514	0.650	2.276	37.94	39.12

Reference: patent US11560339B2, “Micronutrient foliar solutions” (KOCH AGRONOMIC SERVICES, LLC, priority 2019, dated 2023)
